In patent US20250268903A1, “RXFP1 AGONISTS” (BRISTOL-MYERS SQUIBB COMPANY, priority 2021, published 2025):

Target: T1, human RXFP1 (Homo sapiens, UniProt Q9HBX9)
T1 construct: expressed in transfected cells
T1 sequence (Q9HBX9 1-757): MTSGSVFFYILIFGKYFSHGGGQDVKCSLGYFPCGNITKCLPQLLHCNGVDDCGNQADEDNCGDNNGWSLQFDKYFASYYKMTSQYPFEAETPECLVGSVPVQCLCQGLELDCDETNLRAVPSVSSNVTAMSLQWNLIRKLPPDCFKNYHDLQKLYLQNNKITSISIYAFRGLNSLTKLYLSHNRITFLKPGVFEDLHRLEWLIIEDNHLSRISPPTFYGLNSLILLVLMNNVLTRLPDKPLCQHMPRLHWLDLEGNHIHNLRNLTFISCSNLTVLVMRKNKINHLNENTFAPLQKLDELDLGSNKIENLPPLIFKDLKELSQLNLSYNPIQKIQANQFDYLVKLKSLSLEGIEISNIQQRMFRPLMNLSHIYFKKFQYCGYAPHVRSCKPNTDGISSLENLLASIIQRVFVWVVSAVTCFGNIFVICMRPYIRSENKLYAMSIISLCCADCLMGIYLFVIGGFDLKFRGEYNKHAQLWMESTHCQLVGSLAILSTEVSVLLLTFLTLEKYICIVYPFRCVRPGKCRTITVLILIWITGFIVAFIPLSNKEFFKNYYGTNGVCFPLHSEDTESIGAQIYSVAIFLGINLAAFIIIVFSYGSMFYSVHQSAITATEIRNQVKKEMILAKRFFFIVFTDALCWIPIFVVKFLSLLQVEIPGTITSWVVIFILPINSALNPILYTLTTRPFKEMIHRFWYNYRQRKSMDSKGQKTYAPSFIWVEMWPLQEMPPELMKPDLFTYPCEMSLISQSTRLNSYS
Experiment: hRXFP1 HEK293 cAMP assay (HTRF)
Type: cell-based
Settings: HEK293 cells stably expressing human RXFP1, 30 min at room temperature
Method in brief: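 Potency and activity come from a four-parameter logistic fit of cAMP against compound concentration, tested from 0.010 nM up to 50 μM. The assay uses HEK293 cells stably expressing human RXFP1, incubated 30 min at ambient temperature with phosphodiesterase inhibitor IBMX present.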

| EC50 [nM] | Compound |
| --- | --- |
| 2040 | COc1cc(CN2C(=O)CNC2=O)ccc1C(=O)N[C@@H]1C2CCC(/C2=C/C2CC2)[C@@H]1C(=O)Nc1ccc(F)c(C(F)(F)F)c1 (stereo partly drawn) [Example 25, (2S,3R,7Z)-7-(cyclopropylmethyli-dene)-3-{4-[(2,5-dioxoimidazolidin-1-yl)methyl]-2-methoxybenzamido}-N-[4-fluoro-3-(trifluoromethyl)phe-nyl]bicyclo[2.2.1] heptane-2-carboxamide] |
| 1380 | COc1cc(CN2C(=O)CNC2=O)ccc1C(=O)N[C@@H]1C2CCC(/C2=C/C(F)(F)F)[C@@H]1C(=O)Nc1ccc(F)c(C(F)(F)F)c1 (stereo partly drawn) [Example 26, (2S,3R,7Z)-3-{4-[(2,5-dioxoimidazolidin-1-yl)methyl]-2-methoxybenzamido}-N-[4-fluoro-3-(trifluoromethyl)phe-nyl]-7-(2,2,2-trifluoroethylidene)bi-cyclo[2.2.1]heptane-2-carboxamide] |
| 4680 | COc1ccc(COC2CCOC2)cc1C(=O)N[C@@H]1C2CCC(/C2=C/C(F)(F)F)[C@@H]1C(=O)Nc1ccc(F)c(C(F)(F)F)c1 (stereo partly drawn) [Example 27, (2S,3R,7Z)-N-[4-fluoro-3-(trifluoromethyl)phe-nyl]-3-{2-methoxy-5-[(oxolan-3-yloxy)methyl]benza-mido}-7-(2,2,2-trifluoroethylidene)bi-cyclo[2.2.1]heptane-2-carboxamide] |
| 56 | COc1ccc(COCCC(=O)O)cc1C(=O)N[C@@H]1C2CCC(/C2=C/c2ccccc2)[C@@H]1C(=O)Nc1ccc(F)c(C(F)(F)F)c1 (stereo partly drawn) [Example 28, 3-[(3-{[(2R,3S,7Z)-3-{[4-fluoro-3-(trifluoromethyl)phe-nyl]carbamoyl}-7-(phenylmethylidene)bicyclo[2.2.1]heptan-2-yl]carbamoyl}-4-methoxyphenyl)meth-oxy]propanoic acid] |
| 400 | COc1ccc(COCC(=O)O)cc1C(=O)N[C@@H]1C2CCC(/C2=C/c2ccccc2)[C@@H]1C(=O)Nc1ccc(F)c(C(F)(F)F)c1 (stereo partly drawn) [Example 29, 2-[(3-{[(2R,3S,7Z)-3-{[4-fluoro-3-(trifluoromethyl)phe-nyl]carbamoyl}-7-(phenylmethylidene)bicyclo[2.2.1]heptan-2-yl]carbamoyl}-4-methoxyphenyl)meth-oxy]acetic acid] |
| 710 | COc1ccc(COCCC(=O)O)cc1C(=O)N[C@@H]1C2CCC(C2=C(C)C)[C@@H]1C(=O)Nc1ccc(F)c(C(F)(F)F)c1 (stereo partly drawn) [Example 30, 3-[(3-{[(2R,3S)-3-{[4-fluoro-3-(trifluoromethyl)phe-nyl]carbamoyl}-7-(propan-2-ylidene)bicyclo[2.2.1]heptan-2-yl]carbamoyl}-4-methoxyphenyl)meth-oxy]propanoic acid] |
| 180 | COC/C=C/c1ccc(OC)c(C(=O)N[C@@H]2C3CCC(C3=C(C)C)[C@@H]2C(=O)Nc2ccc(F)c(C(F)(F)F)c2)c1 (stereo partly drawn) [Example 31, (2S,3R)—N-[4-fluoro-3-(trifluoromethyl)phenyl]-3-{2-methoxy-5-[(1E)-3-methoxyprop-1-en-1-yl]benzamido}-7-(propan-2-ylidene) bicyclo[2.2.1]heptane-2-carboxamide] |
| 740 | COc1ccc(/C=C/CCO)cc1C(=O)N[C@@H]1C2CCC(C2=C(C)C)[C@@H]1C(=O)Nc1ccc(F)c(C(F)(F)F)c1 (stereo partly shown) [Example 32] |
| 580 | COC(=O)OCC/C=C/c1ccc(OC)c(C(=O)N[C@H]2[C@@H](C(=O)Nc3ccc(F)c(C(F)(F)F)c3)[C@H]3CC[C@@H]2C3=C(C)C)c1 [Example 33, (E)-4-(3-(((1R,2R,3S,4R)-3-((4-fluoro-3-(trifluoromethyl)phenyl)carbamoyl)-7-(propan-2-ylidene)bicyclo[2.2.1]heptan-2-yl)carbamoyl)-4-methoxyphenyl) but-3-en-1-yl methyl carbonate] |
| 470 | COc1ccc(C2=CC(=O)CCC2)cc1C(=O)N[C@@H]1C2CCC(/C2=C/C(F)(F)F)[C@@H]1C(=O)Nc1ccc(F)c(C(F)(F)F)c1 (stereo partly shown) [Example 34] |
| 611 | COc1ccc(C2CCCCC2)cc1C(=O)N[C@@H]1C2CCC(/C2=C/C(F)(F)F)[C@@H]1C(=O)Nc1ccc(F)c(C(F)(F)F)c1 (stereo partly drawn) [Example 39, (2S,3R,7Z)-3-(5-cyclohexyl-2-methoxybenzamido)-N-[4-fluoro-3-(trifluoromethyl)phenyl]-7-(2,2,2-trifluoroethylidene) bicyclo[2.2.1]heptane-2-carboxamide] |
| 926 | COc1ccc(C2CCCC2)cc1C(=O)N[C@@H]1C2CCC(/C2=C/C(F)(F)F)[C@@H]1C(=O)Nc1ccc(F)c(C(F)(F)F)c1 (stereo partly drawn) [Example 47, (2S,3R,7Z)-3-(5-cyclopentyl-2-methoxybenzamido)-N-[4-fluoro-3-(trifluoroemthyl)phe-nyl]-7-(2,2,2-trifluoroethylidene) bicyclo[2.2.1]heptane-2-carboxamide] |
| 781 | COc1ccc(CCO)cc1C(=O)NC1C2CCC(/C2=C/C(F)(F)F)[C@@H]1C(=O)Nc1ccc(F)c(C(F)(F)F)c1 (stereo partly shown) [Example 55] |
| 144 | COc1ccc(C#CCO)cc1C(=O)N[C@@H]1C2CCC(/C2=C/C(F)(F)F)[C@@H]1C(=O)Nc1ccc(F)c(C(F)(F)F)c1 (stereo partly shown) [Example 68] |
| 95 | COc1ccc(C#CCOC(=O)Nc2ccccc2)cc1C(=O)N[C@@H]1C2CCC(/C2=C/C(F)(F)F)[C@@H]1C(=O)Nc1ccc(F)c(C(F)(F)F)c1 (stereo partly drawn) [Example 69, 3-(3-{[(2R,3S,7Z)-3-{[4-fluoro-3-(trifluoromethyl)phe-nyl]carbamoyl}-7-(2,2,2-trifluoroethylidene)bi-cyclo[2.2.1]heptan-2-yl]carbamoyl}-4-methoxyphenyl)prop-2-yn-1-yl N-phenylcarbamate] |
| 309 | COc1ccc(C#CC(C)(C)O)cc1C(=O)N[C@@H]1C2CCC(/C2=C/C(F)(F)F)[C@@H]1C(=O)Nc1ccc(F)c(C(F)(F)F)c1 (stereo partly drawn) [Example 70, (2S,3R,7Z)-N-[4-fluoro-3-(trifluoromethyl)phe-nyl]-3-[5-(3-hydroxy-3-methylbut-1-yn-1-yl)-2-methoxybenzamido]-7-(2,2,2-trifluoroethylidene)bi-cyclo[2.2.1]heptane-2-carboxamide] |
| 118 | COc1ccc(C#C[C@H](C)O)cc1C(=O)N[C@@H]1C2CCC(/C2=C/C(F)(F)F)[C@@H]1C(=O)Nc1ccc(F)c(C(F)(F)F)c1 (stereo partly drawn) [Example 71, (2S,3R,7Z)-N-[4-fluoro-3-(trifluoromethyl)phe-nyl]-3-{5-[(3S)-3-hydroxybut-1-yn-1-yl]-2-methoxybenzamido}-7-(2,2,2-trifluoroethylidene)bi-cyclo[2.2.1]heptane-2-carboxamide] |
| 134 | COc1ccc(C#C[C@@H](C)O)cc1C(=O)N[C@@H]1C2CCC(/C2=C/C(F)(F)F)[C@@H]1C(=O)Nc1ccc(F)c(C(F)(F)F)c1 (stereo partly drawn) [Example 72, (2S,3R,7Z)-N-[4-fluoro-3-(trifluoromethyl)phe-nyl]-3-{5-[(3R)-3-hydroxybut-1-yn-1-yl]-2-methoxybenzamido}-7-(2,2,2-trifluoroethylidene)bi-cyclo[2.2.1]heptane-2-carboxamide] |
| 88 | COc1ccc(C#C[C@@H](C)O)cc1C(=O)N[C@@H]1C2CCC(/C2=C/C2CC2)[C@@H]1C(=O)Nc1ccc(F)c(C(F)(F)F)c1 (stereo partly drawn) [Example 73, (2S,3R,7Z)-7-(cyclopropylmethyli-dene)-N-[4-fluoro-3-(trifluoromethyl)phe-nyl]-3-{5-[(3R)-3-hydroxybut-1-yn-1-yl]-2-methoxybenzamido} bicyclo[2.2.1]heptane-2-carboxamide] |
| 3550 | COc1cc(C#CCO)ccc1C(=O)N[C@@H]1C2CCC(/C2=C/C(F)(F)F)[C@@H]1C(=O)Nc1ccc(F)c(C(F)(F)F)c1 (stereo partly drawn) [Example 74, (2S,3R,7Z)-N-[4-fluoro-3-(trifluoromethyl)phe-nyl]-3-[4-(3-hydroxyprop-1-yn-1-yl)-2-methoxybenzamido]-7-(2,2,2-trifluoroethylidene)bi-cyclo[2.2.1]heptane-2-carboxamide] |
| 91 | C#Cc1ccc(OC)c(C(=O)N[C@@H]2C3CCC(/C3=C/C(F)(F)F)[C@@H]2C(=O)Nc2ccc(F)c(C(F)(F)F)c2)c1 (stereo partly drawn) [Example 75, (2S,3R,7Z)-3-(5-ethynyl-2-methoxybenzamido)-N-[4-fluoro-3-(trifluoromethyl)phe-nyl]-7-(2,2,2-trifluoroethylidene)bi-cyclo[2.2.1]heptane-2-carboxamide] |
| 66 | COc1ccc(C#CCCO)cc1C(=O)N[C@@H]1C2CCC(/C2=C/C(F)(F)F)[C@@H]1C(=O)Nc1ccc(F)c(C(F)(F)F)c1 (stereo partly drawn) [Example 76, (2S,3R,7Z)-N-[4-fluoro-3-(trifluoromethyl)phe-nyl]-3-[5-(4-hydroxybut-1-yn-1-yl)-2-methoxybenzamido]-7-(2,2,2-trifluoroethylidene)bi-cyclo[2.2.1]heptane-2-carboxamide] |
